The source made the active and inactive calls. The rule behind the calls is not given here.

The data set deals with CCRIS mutagenicity, Ames/micronucleus/aberration tests. The experiment in a line: CCRIS mutagenicity studies.
[1] abbreviates: Test System: AMES SALMONELLA TYPHIMURIUM, Strain/Indicator: TA98, Metabolic Activation: NONE, Method: PREINCUBATION
The mark [2] stands for this setting: Test System: AMES SALMONELLA TYPHIMURIUM, Strain/Indicator: TA100, Metabolic Activation: NONE, Method: PREINCUBATION
Where [3] appears, read: Test System: AMES SALMONELLA TYPHIMURIUM, Strain/Indicator: TA1535, Metabolic Activation: NONE, Method: STANDARD PLATE.
The mark [4] stands for this setting: Test System: AMES SALMONELLA TYPHIMURIUM, Strain/Indicator: TA100, Metabolic Activation: NONE, Method: STANDARD PLATE.

Take `CC(=O)c1ccncc1`: the mutagenic call is “active; positive” (End Point: IN VITRO CHROMOSOMAL ABERRATIONS, Test System: CHO-LB CELLS, Metabolic Activation: RAT, LIVER, S-9, AROCLOR 1254); “inactive; negative” (Test System: AMES SALMONELLA TYPHIMURIUM, Strain/Indicator: TA97, Metabolic Activation: HAMSTER, LIVER, S-9, AROCLOR 1254 (10 OR 30%), Method: PREINCUBATION); “inactive; negative” (Test System: AMES SALMONELLA TYPHIMURIUM, Strain/Indicator: TA97, Metabolic Activation: NONE, Method: PREINCUBATION); “inactive; negative” (Test System: AMES SALMONELLA TYPHIMURIUM, Strain/Indicator: TA97, Metabolic Activation: RAT, LIVER, S-9, AROCLOR 1254 (10 OR 30%), Method: PREINCUBATION); “inactive; negative” (Test System: AMES SALMONELLA TYPHIMURIUM, Strain/Indicator: TA98, Metabolic Activation: HAMSTER, LIVER, S-9, AROCLOR 1254 (10 OR 30%), Method: PREINCUBATION); “inactive; negative” under setting [1]. In addition, the mutagenic call is, setting by setting: (Test System: AMES SALMONELLA TYPHIMURIUM, Strain/Indicator: TA98, Metabolic Activation: RAT, LIVER, S-9, AROCLOR 1254 (10 OR 30%), Method: PREINCUBATION) “inactive; negative”; (Test System: AMES SALMONELLA TYPHIMURIUM, Strain/Indicator: TA100, Metabolic Activation: HAMSTER, LIVER, S-9, AROCLOR 1254 (10 OR 30%), Method: PREINCUBATION) “inactive; negative”; under setting [2], “inactive; negative”; (Test System: AMES SALMONELLA TYPHIMURIUM, Strain/Indicator: TA100, Metabolic Activation: RAT, LIVER, S-9, AROCLOR 1254 (10 OR 30%), Method: PREINCUBATION) “inactive; negative”; (Test System: AMES SALMONELLA TYPHIMURIUM, Strain/Indicator: TA1535, Metabolic Activation: HAMSTER, LIVER, S-9, AROCLOR 1254 (10 OR 30%), Method: PREINCUBATION) “inactive; negative”; (Test System: AMES SALMONELLA TYPHIMURIUM, Strain/Indicator: TA1535, Metabolic Activation: NONE, Method: PREINCUBATION) “inactive; negative”. The mutagenic call (Test System: AMES SALMONELLA TYPHIMURIUM, Strain/Indicator: TA1535, Metabolic Activation: RAT, LIVER, S-9, AROCLOR 1254 (10 OR 30%), Method: PREINCUBATION) was “inactive; negative”.
Regarding `ClC1OC1CBr` (centres undefined), under setting [2], the mutagenic call was “active; positive”.
`CN(C=O)N=O`: the mutagenic call reads like this: under setting [3], “active; positive”; (Test System: E. COLI, Strain/Indicator: WU3610, Metabolic Activation: NONE, Method: SUSPENSION/PLATE) “active; positive”.
For the compound `O=[Si]=O`, the mutagenic call was “inactive; negative” (Test System: AMES SALMONELLA TYPHIMURIUM, Strain/Indicator: TA98, Metabolic Activation: NONE, Method: STANDARD PLATE); “inactive; negative” (Test System: AMES SALMONELLA TYPHIMURIUM, Strain/Indicator: TA98, Metabolic Activation: RAT, LIVER, S-9, AROCLOR 1254, Method: STANDARD PLATE); “inactive; negative” under setting [4]; “inactive; negative” (Test System: AMES SALMONELLA TYPHIMURIUM, Strain/Indicator: TA100, Metabolic Activation: RAT, LIVER, S-9, AROCLOR 1254, Method: STANDARD PLATE); “inactive; negative” under setting [3]; “inactive; negative” (Test System: AMES SALMONELLA TYPHIMURIUM, Strain/Indicator: TA1535, Metabolic Activation: RAT, LIVER, S-9, AROCLOR 1254, Method: STANDARD PLATE). Moreover, the mutagenic call runs as follows: (Test System: AMES SALMONELLA TYPHIMURIUM, Strain/Indicator: TA1537, Metabolic Activation: NONE, Method: STANDARD PLATE) “inactive; negative”; (Test System: AMES SALMONELLA TYPHIMURIUM, Strain/Indicator: TA1537, Metabolic Activation: RAT, LIVER, S-9, AROCLOR 1254, Method: STANDARD PLATE) “inactive; negative”; (Test System: AMES SALMONELLA TYPHIMURIUM, Strain/Indicator: TA1538, Metabolic Activation: NONE, Method: STANDARD PLATE) “inactive; negative”; (Test System: AMES SALMONELLA TYPHIMURIUM, Strain/Indicator: TA1538, Metabolic Activation: RAT, LIVER, S-9, AROCLOR 1254, Method: STANDARD PLATE) “inactive; negative”; (Test System: E. COLI, Strain/Indicator: WP2, Metabolic Activation: NONE, Method: STANDARD PLATE) “inactive; negative”; (Test System: E. COLI, Strain/Indicator: WP2, Metabolic Activation: RAT, LIVER, S-9, AROCLOR 1254, Method: STANDARD PLATE) “inactive; negative”. Besides, under “Test System: HUMAN-HAMSTER HYBRID AL CELLS, Strain/Indicator: AL CELLS (HPRT), Metabolic Activation: NONE, Method: PREINCUBATION”, the mutagenic call was “active; positive”.
With `CNS(=O)(=O)c1ccc(N)cc1`, the mutagenic call reads like this: under setting [1], “inactive; negative”; (Test System: AMES SALMONELLA TYPHIMURIUM, Strain/Indicator: TA98, Metabolic Activation: RAT, LIVER, S-9, AROCLOR 1254, Method: PREINCUBATION) “inactive; negative”; under setting [2], “inactive; negative”; (Test System: AMES SALMONELLA TYPHIMURIUM, Strain/Indicator: TA100, Metabolic Activation: RAT, LIVER, S-9, AROCLOR 1254, Method: PREINCUBATION) “inactive; negative”.
In the case of `O=NN(c1ccc([N+](=O)[O-])cc1)C1OC[C@@H](O)[C@@H](O)[C@H]1O` (some centres undefined), the mutagenic call under setting [4] is “active; positive”.
